pIC50: −log10 of the molar value.
How the values were obtained:
Assay type in all cases: biochemical
[1] = molecular target: CDK4/cyclinD3(h) (Homo sapiens (Human), UniProt P11802); test: KinaseProfiler panel; parameters: dose or concentration left out as unconfirmed; settings: activity remaining
[2] = molecular target: JNK1α1(h) (Homo sapiens (Human), UniProt P45983); test: KinaseProfiler panel; parameters: dose or concentration left out as unconfirmed; settings: activity remaining
[3] = molecular target: MEK2(h) (Homo sapiens (Human), UniProt P36507); test: KinaseProfiler panel; parameters: dose or concentration left out as unconfirmed; settings: activity remaining
[4] = molecular target: SGK2(h) (Homo sapiens (Human), UniProt Q9HBY8); test: KinaseProfiler panel; parameters: dose or concentration left out as unconfirmed; settings: activity remaining
[5] = molecular target: DCAMKL2(h) (Homo sapiens (Human), UniProt Q8N568); test: KinaseProfiler panel; parameters: dose or concentration left out as unconfirmed; settings: activity remaining
Sequence of DCAMKL2(h) (Q8N568 whole entry, looked up): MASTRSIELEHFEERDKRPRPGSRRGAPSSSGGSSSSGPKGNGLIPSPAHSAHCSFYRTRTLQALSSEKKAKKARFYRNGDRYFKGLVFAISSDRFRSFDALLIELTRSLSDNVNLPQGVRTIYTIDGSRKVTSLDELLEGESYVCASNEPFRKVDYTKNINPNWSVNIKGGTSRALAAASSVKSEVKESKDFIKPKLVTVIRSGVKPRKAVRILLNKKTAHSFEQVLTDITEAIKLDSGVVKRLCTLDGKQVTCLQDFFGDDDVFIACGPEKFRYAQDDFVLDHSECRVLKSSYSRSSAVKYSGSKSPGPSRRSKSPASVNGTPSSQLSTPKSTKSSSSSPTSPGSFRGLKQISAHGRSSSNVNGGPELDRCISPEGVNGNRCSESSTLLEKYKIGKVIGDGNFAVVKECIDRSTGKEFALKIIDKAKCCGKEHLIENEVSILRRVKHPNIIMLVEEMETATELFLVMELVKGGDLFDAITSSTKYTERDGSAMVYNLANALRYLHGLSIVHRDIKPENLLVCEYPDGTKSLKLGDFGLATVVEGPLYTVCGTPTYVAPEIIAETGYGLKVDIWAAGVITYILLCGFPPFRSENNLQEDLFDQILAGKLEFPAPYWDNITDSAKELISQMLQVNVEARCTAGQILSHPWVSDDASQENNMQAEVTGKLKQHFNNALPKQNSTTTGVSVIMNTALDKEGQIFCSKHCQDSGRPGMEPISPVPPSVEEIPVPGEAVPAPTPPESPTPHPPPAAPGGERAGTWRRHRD

[6] = molecular target: PI3 Kinase (p110d/p85a)(h) (Homo sapiens (Human), UniProt O00329); test: KinaseProfiler panel; parameters: dose or concentration left out as unconfirmed; settings: activity remaining
[7] = molecular target: SNRK(h) (Homo sapiens (Human), UniProt Q9NRH2); test: KinaseProfiler panel; parameters: dose or concentration left out as unconfirmed; settings: activity remaining
[8] = molecular target: MLK1(h) (Homo sapiens (Human), UniProt P80192); test: KinaseProfiler panel; parameters: dose or concentration left out as unconfirmed; settings: activity remaining
Sequence of MLK1(h) (P80192 whole entry): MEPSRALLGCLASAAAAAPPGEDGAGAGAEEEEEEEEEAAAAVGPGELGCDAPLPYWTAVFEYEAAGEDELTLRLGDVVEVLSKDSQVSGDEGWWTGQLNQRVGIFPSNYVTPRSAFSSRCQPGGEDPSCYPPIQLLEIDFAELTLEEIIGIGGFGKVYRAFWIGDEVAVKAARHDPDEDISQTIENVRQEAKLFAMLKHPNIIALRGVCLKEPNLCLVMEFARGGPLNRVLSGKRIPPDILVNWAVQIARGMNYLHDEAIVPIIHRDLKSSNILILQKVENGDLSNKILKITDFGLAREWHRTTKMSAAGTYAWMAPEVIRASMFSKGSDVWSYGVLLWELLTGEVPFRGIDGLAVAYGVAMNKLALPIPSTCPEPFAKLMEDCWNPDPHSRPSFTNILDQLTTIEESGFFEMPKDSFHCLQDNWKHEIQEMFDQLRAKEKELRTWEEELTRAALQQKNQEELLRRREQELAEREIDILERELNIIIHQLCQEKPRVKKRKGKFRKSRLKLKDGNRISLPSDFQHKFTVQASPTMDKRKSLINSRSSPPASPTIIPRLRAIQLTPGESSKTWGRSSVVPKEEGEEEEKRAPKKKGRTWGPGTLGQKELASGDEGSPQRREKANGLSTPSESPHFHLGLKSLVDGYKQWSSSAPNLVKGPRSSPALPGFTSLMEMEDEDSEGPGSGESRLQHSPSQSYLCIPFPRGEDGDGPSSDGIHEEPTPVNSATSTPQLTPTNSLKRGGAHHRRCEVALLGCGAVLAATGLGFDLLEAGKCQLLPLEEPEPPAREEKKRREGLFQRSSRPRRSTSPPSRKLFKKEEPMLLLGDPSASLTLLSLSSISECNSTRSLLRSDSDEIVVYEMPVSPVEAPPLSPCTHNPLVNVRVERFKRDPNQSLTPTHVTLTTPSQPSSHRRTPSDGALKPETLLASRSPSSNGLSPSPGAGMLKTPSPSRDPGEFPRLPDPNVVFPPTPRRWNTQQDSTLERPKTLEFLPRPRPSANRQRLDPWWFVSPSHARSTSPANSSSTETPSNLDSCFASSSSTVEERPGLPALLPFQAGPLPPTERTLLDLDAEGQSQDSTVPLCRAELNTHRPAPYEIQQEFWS

[9] = molecular target: CDK9/cyclin T1(h) (Homo sapiens (Human), UniProt P50750); test: KinaseProfiler panel; parameters: dose or concentration left out as unconfirmed; settings: activity remaining
[10] = molecular target: TAF1L(h) (Homo sapiens (Human), UniProt Q8IZX4); test: KinaseProfiler panel; parameters: dose or concentration left out as unconfirmed; settings: activity remaining
[11] = molecular target: CDK1/cyclinB(h) (Homo sapiens (Human), UniProt P06493); test: KinaseProfiler panel; parameters: dose or concentration left out as unconfirmed; settings: activity remaining
[12] = molecular target: MAP4K4(h) (Homo sapiens (Human), UniProt O95819); test: KinaseProfiler panel; parameters: dose or concentration left out as unconfirmed; settings: activity remaining
[13] = molecular target: CK2α2(h) (Homo sapiens (Human), UniProt P19784); test: KinaseProfiler panel; parameters: dose or concentration left out as unconfirmed; settings: activity remaining
[14] = molecular target: Lck(h) (Homo sapiens (Human), UniProt P06239); test: KinaseProfiler panel; parameters: dose or concentration left out as unconfirmed; settings: activity remaining
Sequence of Lck(h) (P06239 whole entry): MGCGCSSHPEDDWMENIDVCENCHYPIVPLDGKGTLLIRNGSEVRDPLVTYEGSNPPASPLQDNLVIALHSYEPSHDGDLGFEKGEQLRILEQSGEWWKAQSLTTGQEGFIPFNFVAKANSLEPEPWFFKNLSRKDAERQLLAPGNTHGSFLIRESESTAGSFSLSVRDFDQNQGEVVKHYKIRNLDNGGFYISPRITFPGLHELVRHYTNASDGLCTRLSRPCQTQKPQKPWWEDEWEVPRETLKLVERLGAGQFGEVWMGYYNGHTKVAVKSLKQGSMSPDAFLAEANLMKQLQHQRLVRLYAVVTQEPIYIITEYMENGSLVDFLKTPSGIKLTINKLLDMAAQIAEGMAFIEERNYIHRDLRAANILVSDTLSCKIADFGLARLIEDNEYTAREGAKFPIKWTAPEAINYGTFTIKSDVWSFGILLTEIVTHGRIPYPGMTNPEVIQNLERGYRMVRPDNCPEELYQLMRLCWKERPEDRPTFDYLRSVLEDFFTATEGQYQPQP

[15] = molecular target: ZIPK(h) (Homo sapiens (Human), UniProt O43293); test: KinaseProfiler panel; parameters: dose or concentration left out as unconfirmed; settings: activity remaining
[16] = molecular target: Mer(h) (Homo sapiens (Human), UniProt Q12866); test: KinaseProfiler panel; parameters: dose or concentration left out as unconfirmed; settings: activity remaining
[17] = molecular target: Pim-1(h) (Homo sapiens (Human), UniProt P11309); test: KinaseProfiler panel; parameters: dose or concentration left out as unconfirmed; settings: activity remaining
Sequence of Pim-1(h) (P11309 whole entry): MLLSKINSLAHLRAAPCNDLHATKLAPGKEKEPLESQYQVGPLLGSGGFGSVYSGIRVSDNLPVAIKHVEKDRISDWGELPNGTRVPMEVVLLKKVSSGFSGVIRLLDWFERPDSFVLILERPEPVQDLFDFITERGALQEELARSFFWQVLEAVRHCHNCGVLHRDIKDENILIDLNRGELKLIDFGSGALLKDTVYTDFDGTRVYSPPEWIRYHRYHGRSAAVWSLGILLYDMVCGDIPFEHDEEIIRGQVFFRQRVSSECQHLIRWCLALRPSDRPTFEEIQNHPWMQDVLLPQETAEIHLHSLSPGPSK

[18] = molecular target: IKKβ (Homo sapiens (Human), UniProt O14920); test: KinaseProfiler radiometric assay (14-485KP); settings: mean of at least two independent experiments
Sequence of IKKβ (O14920 whole entry): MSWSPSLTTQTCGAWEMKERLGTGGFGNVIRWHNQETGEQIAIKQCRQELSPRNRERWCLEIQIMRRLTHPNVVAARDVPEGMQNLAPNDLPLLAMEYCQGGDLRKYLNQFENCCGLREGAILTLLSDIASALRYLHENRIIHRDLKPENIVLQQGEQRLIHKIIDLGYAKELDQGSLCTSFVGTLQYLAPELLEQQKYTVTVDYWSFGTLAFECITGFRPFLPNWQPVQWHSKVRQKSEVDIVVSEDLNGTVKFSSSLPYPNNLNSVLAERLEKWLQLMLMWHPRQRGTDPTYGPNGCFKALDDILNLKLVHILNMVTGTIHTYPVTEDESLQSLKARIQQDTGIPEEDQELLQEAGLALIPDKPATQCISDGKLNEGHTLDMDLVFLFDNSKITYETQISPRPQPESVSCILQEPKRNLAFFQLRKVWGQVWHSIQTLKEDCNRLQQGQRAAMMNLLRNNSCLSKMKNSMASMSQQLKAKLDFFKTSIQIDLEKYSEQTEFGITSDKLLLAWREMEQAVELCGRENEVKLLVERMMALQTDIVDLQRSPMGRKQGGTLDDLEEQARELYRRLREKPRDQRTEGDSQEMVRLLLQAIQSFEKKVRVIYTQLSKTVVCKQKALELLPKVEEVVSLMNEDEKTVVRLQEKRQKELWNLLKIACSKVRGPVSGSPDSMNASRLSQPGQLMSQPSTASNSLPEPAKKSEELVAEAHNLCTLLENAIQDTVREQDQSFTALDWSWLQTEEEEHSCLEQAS
From the text: (§1) In another aspect, disclosed is a method of inhibiting citron kinase in a sample, comprising contacting the sample with a compound described herein (e.g., a compound of formula (I) or a pharmaceutically acceptable salt thereof), or a pharmaceutical composition described herein (e.g., a pharmaceutical composition comprising a compound of formula (I) or a pharmaceutically acceptable salt thereof), in an amount effective to inhibit citron kinase. In some embodiments, the step of contacting the sample with the compound comprises administering the compound to a subject (e.g., a subject) suffering from cancer. Methods of determining kinase inhibition are well known in the art. For example, kinase activity of an enzyme and the inhibitory capacity of a test compound can be determined by measuring enzyme specific phosphorylation of a substrate. Commercial assays and kits can be employed. For example, kinase inhibition can be determined using a radiometric binding assay, such as using KinaseProfiler™ technology (Eurofins Discovery). This assay method directly detects product formation without the use of modified substrates or coupling enzymes. Test compounds are incubated with kinase, substrate, required cofactors and radioisotope labeled ATP. Following incubation, unreacted radioactive ATP is removed by washing and incorporation of the radiolabeled phosphate into the kinase substrate is assayed to detect phosphoryltransferase activity, which is directly proportional to the amount of phosphorylated substrate. Inhibition of the kinase by a kinase inhibitor prevents phosphorylation of the substrate and thereby limits the incorporation of radiolabeled phosphate. Such an assay is compatible with a microwell assay format, allowing simultaneous determination of IC50 of multiple compounds.
(§2) The effect of various compounds on the inhibition of other kinases has also been determined. Table 2 reports measured IC50 values; value units are nanomolar inhibition.

[19] = molecular target: CaMKIδ(h) (Homo sapiens (Human), UniProt Q8IU85); test: KinaseProfiler panel; parameters: dose or concentration left out as unconfirmed; settings: activity remaining
Sequence of CaMKIδ(h) (Q8IU85 whole entry): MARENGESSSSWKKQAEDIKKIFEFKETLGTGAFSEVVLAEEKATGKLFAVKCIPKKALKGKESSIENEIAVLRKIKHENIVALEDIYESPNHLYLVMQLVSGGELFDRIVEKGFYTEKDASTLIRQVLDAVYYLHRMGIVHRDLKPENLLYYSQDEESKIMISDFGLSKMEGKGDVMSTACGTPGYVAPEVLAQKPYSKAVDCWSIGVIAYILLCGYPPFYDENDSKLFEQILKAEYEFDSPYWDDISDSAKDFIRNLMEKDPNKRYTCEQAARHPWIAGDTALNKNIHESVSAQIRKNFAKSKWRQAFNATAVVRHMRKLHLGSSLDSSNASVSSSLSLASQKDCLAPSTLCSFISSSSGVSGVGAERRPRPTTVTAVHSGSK

[20] = molecular target: CLIK1(h) (Homo sapiens (Human), UniProt Q8TDR2); test: KinaseProfiler panel; parameters: dose or concentration left out as unconfirmed; settings: activity remaining
[21] = molecular target: JAK1(h) (Homo sapiens (Human), UniProt P23458); test: KinaseProfiler panel; parameters: dose or concentration left out as unconfirmed; settings: activity remaining
Sequence of JAK1(h) (P23458 whole entry): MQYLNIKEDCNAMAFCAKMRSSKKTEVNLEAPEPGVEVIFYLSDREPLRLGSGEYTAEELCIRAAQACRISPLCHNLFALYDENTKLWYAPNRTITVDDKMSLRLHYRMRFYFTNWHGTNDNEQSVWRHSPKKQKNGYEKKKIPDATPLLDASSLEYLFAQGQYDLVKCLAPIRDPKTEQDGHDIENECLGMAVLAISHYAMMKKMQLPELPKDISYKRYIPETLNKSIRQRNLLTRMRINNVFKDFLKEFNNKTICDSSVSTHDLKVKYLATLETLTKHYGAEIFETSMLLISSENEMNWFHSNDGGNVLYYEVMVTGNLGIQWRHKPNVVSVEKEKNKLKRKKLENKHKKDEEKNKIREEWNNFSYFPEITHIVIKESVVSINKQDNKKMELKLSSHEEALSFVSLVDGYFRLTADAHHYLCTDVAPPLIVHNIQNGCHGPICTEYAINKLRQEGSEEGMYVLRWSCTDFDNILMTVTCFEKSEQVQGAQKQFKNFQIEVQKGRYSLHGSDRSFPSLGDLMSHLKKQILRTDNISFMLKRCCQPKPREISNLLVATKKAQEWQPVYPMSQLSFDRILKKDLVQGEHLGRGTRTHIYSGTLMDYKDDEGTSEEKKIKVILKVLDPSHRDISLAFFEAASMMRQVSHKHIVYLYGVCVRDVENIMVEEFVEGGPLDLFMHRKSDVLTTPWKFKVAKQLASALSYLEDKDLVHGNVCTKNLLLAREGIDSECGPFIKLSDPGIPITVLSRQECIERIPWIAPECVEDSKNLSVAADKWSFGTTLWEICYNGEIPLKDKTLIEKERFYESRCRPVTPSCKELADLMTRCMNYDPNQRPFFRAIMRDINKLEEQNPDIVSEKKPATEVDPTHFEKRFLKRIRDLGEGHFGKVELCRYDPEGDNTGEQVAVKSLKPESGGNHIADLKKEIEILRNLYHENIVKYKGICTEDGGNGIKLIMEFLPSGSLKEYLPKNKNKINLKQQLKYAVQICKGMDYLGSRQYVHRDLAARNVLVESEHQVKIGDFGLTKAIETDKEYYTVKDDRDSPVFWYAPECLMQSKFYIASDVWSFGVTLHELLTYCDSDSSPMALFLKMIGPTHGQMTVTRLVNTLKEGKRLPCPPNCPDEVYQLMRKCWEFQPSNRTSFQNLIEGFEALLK

[22] = molecular target: Fgr(h) (Homo sapiens (Human), UniProt P09769); test: KinaseProfiler panel; parameters: dose or concentration left out as unconfirmed; settings: activity remaining
[23] = molecular target: AAK1 (Homo sapiens (Human), UniProt Q2M2I8); test: KinaseProfiler radiometric assay (16-043KP); settings: mean of at least two independent experiments
From the text: as §1, with “Test compounds are incubated with kinase, substrate, required cofactors and radioisotope labeled ATP. Following incubation, unreacted radioactive ATP is removed by washing and incorporation of the radiolabeled phosphate into the kinase substrate is assayed to detect phosphoryltransferase activity, which is directly proportional to the amount of phosphorylated substrate. Inhibition of the kinase by a kinase inhibitor prevents phosphorylation of the substrate and thereby limits the incorporation of radiolabeled phosphate. Such an assay is compatible with a microwell assay format, allowing simultaneous determination of IC50 of multiple compounds.” left out
as §2

For `Cc1cc2c(-c3ccc(NC(=O)[C@H](N)CC(C)(C)C)cc3C)ccnc2[nH]1` [Compound F-90, (2R)-2-Amino-4,4-dimethyl-N-[3-methyl-4-(2-methyl-1H-pyrrolo[2,3-b]pyridin-4-yl)phenyl]pentanamide], the “% Activity” value [1] was 74%, the “% Activity” value [2] was 110% and the “% Activity” value [3] was 92%. The “% Activity” value [4] was 82%, the “% Activity” value [5] was 104% and the “% Activity” value [6] was 110%. The “% Activity” value [7] was 111%, the “% Activity” value [8] was 103% and the “% Activity” value [9] was 81%. The “% Activity” value [10] was 101%, the “% Activity” value [11] was 94% and the “% Activity” value [12] was 101%. The “% Activity” value [13] was 115%, the “% Activity” value [14] was 86% and the “% Activity” value [15] was 94%. For the same compound, the “% Activity” value [16] was 105%, the “% Activity” value [17] was 95% and the pIC50 [18] was under 5.52. The “% Activity” value [19] was 89%, the “% Activity” value [20] was 97% and the “% Activity” value [21] was 85%. For the same compound, the “% Activity” value [22] was 97% and the pIC50 [23] was 6.67.

Source: patent US20250243196A1, “CITRON KINASE INHIBITORS” (The Cleveland Clinic Foundation, priority 2021, published 2025)
